ChEMBL document CHEMBL4392828, “Structural modification of indomethacin toward selective inhibition of COX-2 with a significant increase in van der Waals contributions” (Bioorg Med Chem, 2019)
Activity calls are given as the source filed them. The calls are words filed in the database; no cut-off is given here.

Molecular target: T1, Prostaglandin G/H synthase 1 (Ovis aries) (UniProt P05979)
T1 sequence (whole entry): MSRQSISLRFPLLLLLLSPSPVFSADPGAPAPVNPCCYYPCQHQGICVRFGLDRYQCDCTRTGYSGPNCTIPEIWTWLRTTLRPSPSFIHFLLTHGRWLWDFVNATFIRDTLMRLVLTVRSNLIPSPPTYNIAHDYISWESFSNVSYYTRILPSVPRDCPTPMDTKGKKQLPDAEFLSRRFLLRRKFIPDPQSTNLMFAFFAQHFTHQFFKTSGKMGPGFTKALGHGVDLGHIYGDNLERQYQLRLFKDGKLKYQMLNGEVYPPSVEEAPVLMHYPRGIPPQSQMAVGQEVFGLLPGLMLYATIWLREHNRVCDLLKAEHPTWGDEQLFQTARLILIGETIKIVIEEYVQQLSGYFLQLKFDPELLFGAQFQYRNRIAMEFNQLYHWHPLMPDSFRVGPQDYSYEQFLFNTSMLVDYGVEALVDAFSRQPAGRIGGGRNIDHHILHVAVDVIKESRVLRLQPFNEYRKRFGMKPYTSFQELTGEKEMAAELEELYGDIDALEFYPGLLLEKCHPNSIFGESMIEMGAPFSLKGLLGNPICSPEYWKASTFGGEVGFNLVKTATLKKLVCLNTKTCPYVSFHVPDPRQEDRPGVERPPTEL
Assay: Inhibition of ovine COX1 assessed as reduction in PGF2alpha production up to 2000 nM using arachidonic acid as substrate incubated for 10 mins by EIA method relative to indomethacin

inhibition: inactive
Structure (SMILES): COc1ccc2c(c1)c(CC(=O)O)c(/C=C/C(F)(F)F)n2C(=O)c1ccc(Cl)cc1
